Data published in US11459325B2, “Heterocyclic compound” (Takeda Pharmaceutical Company Limited, priority 2018, dated 2022).

System: GBA mutant human fibroblasts GM008760
Assay: Glucosylceramide lowering assay
Format: cell-based
Settings: 10 μM test compound, 4 days culture, GlcCer (C16:0)/Cer (C16:0) molar ratio of test compound group relative to DMSO control group x100, smaller value = glucosylceramide lowering; for activity at 10 µM: Homo sapiens, Fibroblast, 96 h
Method: Glucosylceramide Lowering Assay
Using GBA mutant human fibroblasts containing mutated glucosylceramidase, the effect of test compounds on glucosylceramide reduction was evaluated.
GBA mutant human fibroblasts GM008760 (Coriel Institute) were seeded in a 96-well multiwell plate at a density of 5,000 cells/100 μL culture solution/well. GlutaMAX (Thermo Fishcer Scientific), penicillin-streptomycin, and Minimum Essential Media (Thermo Fishcer Scientific) supplemented with 15% fetal bovine serum were used as a culture solution. After culturing for 2 days, a 10 mM DMSO solution of the test compound diluted with the culture solution was added to a 96-well plate by 100 μL to adjust a final test compound concentration to 10 μM. After culturing the cells for 4 days in the presence of the test compound, the culture solution was removed, and the cells adhered to the 96-well plate were washed with a phosphate buffer (ThermoFisher Scientific, product number 14190-144). A solvent composed of 50% ethanol and 50% isopropanol was added to the 96-well plate by 100 μL, and the intracellular lipids were dissolved by pipetting. A solution prepared by dissolving N-Octadecanoyl-D35-psychosine (50 ng/mL, Matreya LLC Inc.) as an internal standard in 50% ethanol and 50% isopropanol was added to the sample in an equal volume, and 2.5 μL of the centrifuged supernatant was used as the test compound group.
In the same manner as above, a control group was prepared by using DMSO instead of the 10 mM DMSO solution of the test compound.
For the test compound group and the control group, molar concentrations of glucosylceramide [GlcCer (C16:0)] and ceramide [Cer (C16:0)] were quantified using Rapidfire-MS/MS (API-5000, Turbo-ESI, SRM), and the glucosylceramide lowering effect of the test compound group relative to the control group was evaluated by the following formula. (GlcCer/Cer of test compound group)/(GlcCer/Cer of control group)×100 wherein GlcCer/Cer is the ratio of the molar concentration of glucosylceramide to that of ceramide.
In this test, when the numerical value obtained by the above calculation formula is small, glucosylceramide is metabolized to ceramide by the test compound, or the synthesis of glucosylceramide from ceramide is inhibited by the test compound, that is, it can be said that the test compound has a glucosylceramide lowering effect.

## Cc1cn(C)c(=O)c2c(C(=O)N[C@H]3CCC[C@@H]3c3ccccc3)cn(C)c12 (racemic) [Example 110, 1,5,7-trimethyl-4-oxo-N-[rac-(1S,2R)-2-phenylcyclopentyl]-4,5-dihydro-1H-pyrrolo[3,2-c]pyridine-3-carboxamide]
  activity at 10 µM: 58%

## CCCCO[C@H]1CC[C@H](NC(=O)c2cnn3c(C)cn(C)c(=O)c23)CC1 [Example 283, N-(trans-4-butoxycyclohexyl)-5,7-dimethyl-4-oxo-4,5-dihydropyrazolo[1,5-a]pyrazine-3-carboxamide]
  activity at 10 µM: 75%

## Cc1cn(-c2ccccc2OCC(F)(F)F)c(=O)c2c(C(=O)Nc3ccc(OCC(F)(F)F)nc3)cnn12 [Example 337, 7-methyl-4-oxo-5-[2-(2,2,2-trifluoroethoxy)phenyl]-N-[6-(2,2,2-trifluoroethoxy)pyridin-3-yl]-4,5-dihydropyrazolo[1,5-a]pyrazine-3-carboxamide]
  activity at 10 µM: 37%

## Cc1cn(-c2ccccc2OCC(F)(F)F)c(=O)c2c(C(=O)N3CCC(Oc4ccc(Cl)cc4)CC3)cnn12 [Example 335, 3-[4-(4-chlorophenoxy)piperidine-1-carbonyl]-7-methyl-5-[2-(2,2,2-trifluoroethoxy)phenyl]pyrazolo[1,5-a]pyrazin-4(5H)-one]
  activity at 10 µM: 68%

## Cc1cn(C)c(=O)c2c(C(=O)N3CC4CC4(c4ccc(OC(F)(F)F)cc4)C3)cnn12 (centres unmarked) [Example 305, 5,7-dimethyl-3-((1-(4-(trifluoromethoxy)phenyl)-3-azabicyclo[3.1.0]hex-3-yl)carbonyl)pyrazolo[1,5-a]pyrazin-4(5H)-one]
  10 μM GlcCer/Cer (% of control): 47 % of control

## Cc1cn(C)c(=O)c2c(C(=O)N3CC4CC4(c4ccccc4C(F)(F)F)C3)cn(C)c12 (centres unmarked) [Example 137, 1,5,7-trimethyl-3-((1-(2-(trifluoromethyl)phenyl)-3-azabicyclo[3.1.0]hex-3-yl)carbonyl)-1,5-dihydro-4H-pyrrolo[3,2-c]pyridin-4-one]
  activity at 10 µM: 64%

## Cc1cn(C)c(=O)c2c(C(=O)N3CCC(Oc4cccc(C(F)(F)F)c4)CC3)cn(C)c12 [Example 176, 1,5,7-trimethyl-3-((4-(3-(trifluoromethyl)phenoxy)piperidin-1-yl)carbonyl)-1,5-dihydro-4H-pyrrolo[3,2-c]pyridin-4-one]
  activity at 10 µM: 56%

## Cc1cn(C)c(=O)c2c(C(=O)N3CCC(Oc4ccc(Cl)c(Cl)c4)CC3)cn(C)c12 [Example 178, 3-((4-(3,4-dichlorophenoxy)piperidin-1-yl)carbonyl)-1,5,7-trimethyl-1,5-dihydro-4H-pyrrolo[3,2-c]pyridin-4-one]
  activity at 10 µM: 42%

## CCCCO[C@H]1CC[C@H](NC(=O)c2cnn3c(C)cn(-c4ccccc4OCC(F)(F)F)c(=O)c23)CC1 [Example 339, N-[trans-4-butoxycyclohexyl]-7-methyl-4-oxo-5-[2-(2,2,2-trifluoroethoxy)phenyl]-4,5-dihydropyrazolo[1,5-a]pyrazine-3-carboxamide]
  activity at 10 µM: 30%

## COc1cc(F)ccc1-n1ccc2c(c(C(=O)Nc3ccc(N4CCOCC4)cc3)cn2C)c1=O [Example 295, 5-(4-fluoro-2-methoxyphenyl)-1-methyl-N-(4-(morpholin-4-yl)phenyl)-4-oxo-4,5-dihydro-1H-pyrrolo[3,2-c]pyridine-3-carboxamide]
  activity at 10 µM: 66%

## Cc1cn(C)c(=O)c2c(C(=O)N3CCC4(c5ccc(Cl)cc5)C(C3)C4(F)F)cn(C)c12 (centres unmarked) [Example 153, 3-((6-(4-chlorophenyl)-7,7-difluoro-3-azabicyclo[4.1.0]hept-3-yl)carbonyl)-1,5,7-trimethyl-1,5-dihydro-4H-pyrrolo[3,2-c]pyridin-4-one]
  activity at 10 µM: 60%

## COc1ccccc1-n1cc(C)n2ncc(C(=O)Nc3ccc(N4CCOCC4)cc3)c2c1=O [Example 311, 5-(2-methoxyphenyl)-7-methyl-N-(4-(morpholin-4-yl)phenyl)-4-oxo-4,5-dihydropyrazolo[1,5-a]pyrazine-3-carboxamide]
  activity at 10 µM: 54%

## COc1ccccc1-n1ccc2c(c(C(=O)Nc3ccc(N4CCOCC4)cc3)cn2C)c1=O [Example 293, 5-(2-methoxyphenyl)-1-methyl-N-(4-(morpholin-4-yl)phenyl)-4-oxo-4,5-dihydro-1H-pyrrolo[3,2-c]pyridine-3-carboxamide]
  activity at 10 µM: 52%

## COc1ccccc1-n1cc(C)c2ncc(C(=O)Nc3ccc(N4CCOCC4)cc3)n2c1=O [Example 350, 6-(2-methoxyphenyl)-8-methyl-N-[4-(morpholin-4-yl)phenyl]-5-oxo-5,6-dihydroimidazo[1,2-c]pyrimidine-3-carboxamide]
  activity at 10 µM: 54%

## Cc1cn(-c2ccccc2OCC(F)(F)F)c(=O)c2c(C(=O)Nc3ccc(N4CCOCC4)cc3)cnn12 [Example 334, 7-methyl-N-[4-(morpholin-4-yl)phenyl]-4-oxo-5-[2-(2,2,2-trifluoroethoxy)phenyl]-4,5-dihydropyrazolo[1,5-a]pyrazine-3-carboxamide]
  activity at 10 µM: 27%

## Cc1cn(C)c(=O)c2c(C(=O)N3CC4CC4(c4ccc(Cl)cc4)C3)cn(C)c12 (centres unmarked) [Example 265, 3-((1-(4-chlorophenyl)-3-azabicyclo[3.1.0]hex-3-yl)carbonyl)-1,5,7-trimethyl-1,5-dihydro-4H-pyrrolo[3,2-c]pyridin-4-one]
  10 μM GlcCer/Cer (% of control): 34 % of control

## Cc1cn(C)c(=O)c2c(C(=O)N3CC4CC4(c4cccc5ccccc45)C3)cn(C)c12 (centres unmarked) [Example 262, 1,5,7-trimethyl-3-((1-(1-naphthyl)-3-azabicyclo[3.1.0]hex-3-yl)carbonyl)-1,5-dihydro-4H-pyrrolo[3,2-c]pyridin-4-one]
  activity at 10 µM: 51%

## Cc1cn(C)c(=O)c2c(C(=O)N[C@H]3CCCC[C@@H]3c3ccccc3)cn(C)c12 (racemic) [Example 112, 1,5,7-trimethyl-4-oxo-N-[rac-(1S,2R)-2-phenylcyclohexyl]-4,5-dihydro-1H-pyrrolo[3,2-c]pyridine-3-carboxamide]
  activity at 10 µM: 61%

## Cc1cn(C)c(=O)c2c(C(=O)N3CC4CC4(c4ccc(OC(F)(F)F)cc4)C3)cn(C)c12 (centres unmarked) [Example 130, 1,5,7-trimethyl-3-((1-(4-(trifluoromethoxy)phenyl)-3-azabicyclo[3.1.0]hex-3-yl)carbonyl)-1,5-dihydro-4H-pyrrolo[3,2-c]pyridin-4-one]
  activity at 10 µM: 21%

## Cc1cn(C)c(=O)c2c(C(=O)N3CC4CC4(c4ccc(OC(F)(F)F)c(F)c4)C3)cn(C)c12 (centres unmarked) [Example 139, 3-((1-(3-fluoro-4-(trifluoromethoxy)phenyl)-3-azabicyclo[3.1.0]hex-3-yl)carbonyl)-1,5,7-trimethyl-1,5-dihydro-4H-pyrrolo[3,2-c]pyridin-4-one]
  activity at 10 µM: 37%

## Cc1cn(C)c(=O)c2c(C(=O)NC(C)(C)c3ccccc3)cn(C)c12 [Example 219, 1,5,7-trimethyl-4-oxo-N-(2-phenylpropan-2-yl)-4,5-dihydro-1H-pyrrolo[3,2-c]pyridine-3-carboxamide]
  activity at 10 µM: 63%

## Cc1cn(-c2ccccc2OCC(F)(F)F)c(=O)c2c(C(=O)Nc3ccc(C#N)nc3)cnn12 [Example 342, N-(6-cyanopyridin-3-yl)-7-methyl-4-oxo-5-[2-(2,2,2-trifluoroethoxy)phenyl]-4,5-dihydropyrazolo[1,5-a]pyrazine-3-carboxamide]
  activity at 10 µM: 28%

## Cc1cn(C)c(=O)c2c(C(=O)N3CCC(Oc4ccc(C(F)(F)F)cc4)CC3)cnn12 [Example 313, 5,7-dimethyl-3-((4-(4-(trifluoromethyl)phenoxy)piperidin-1-yl)carbonyl)pyrazolo[1,5-a]pyrazin-4(5H)-one]
  activity at 10 µM: 52%

## Cc1cn(C)c(=O)c2c(C(=O)N3CC4CC4(c4cc(Cl)cc(C(F)(F)F)c4)C3)cn(C)c12 (centres unmarked) [Example 140, 3-((1-(3-chloro-5-(trifluoromethyl)phenyl)-3-azabicyclo[3.1.0]hex-3-yl)carbonyl)-1,5,7-trimethyl-1,5-dihydro-4H-pyrrolo[3,2-c]pyridin-4-one]
  activity at 10 µM: 49%

## Cc1cn(-c2ccccc2OCC(F)(F)F)c(=O)c2c(C(=O)Nc3ccc(C#N)cn3)cnn12 [Example 343, N-(5-cyanopyridin-2-yl)-7-methyl-4-oxo-5-[2-(2,2,2-trifluoroethoxy)phenyl]-4,5-dihydropyrazolo[1,5-a]pyrazine-3-carboxamide]
  activity at 10 µM: 23%

## Cc1cn(-c2ccccc2OCC(F)(F)F)c(=O)c2c(C(=O)Nc3ccc(OC(F)F)nc3)cnn12 [Example 338, N-[6-(difluoromethoxy)pyridin-3-yl]-7-methyl-4-oxo-5-[2-(2,2,2-trifluoroethoxy)phenyl]-4,5-dihydropyrazolo[1,5-a]pyrazine-3-carboxamide]
  activity at 10 µM: 40%
